The values below come from US20080081829A1, “Medical Device Including an Anesthetic and Method of Preparation Thereof” (MED Institute, Inc, priority 2006, published 2008).

“Also recorded” adds a separate entry of the source. Counter-ions that a name gives are not always drawn. Like-named read-outs stand apart in the source and are kept apart here.

The conditions of series [1]: cited from earlier work.
Series [2] can be described thus: Elution of bupivacaine from spray-coated ureteral stents in aqueous buffers of different pH. Type of series: physicochemical. The text has this: (§1) An approximately 0.6% solution of bupivacaine having a tertiary amine in the non-ionic form (formula (2a) above) in dichloromethane was loaded into a syringe mounted onto a syringe pump and connected to a tube that carried the solution to an ultrasonic nozzle (Model 06-05108—Sono-Tek Co., Poughkeepsie, N.Y. 12547.) A nozzle was 6 mm diameter, 11 mm long and used with a nominal frequency of 120 kHz. Air was purged from the solution line and the spray nozzle primed with the solution. The coating chamber was purged with nitrogen to attain an oxygen concentration below 100 ppm. The solution was sprayed onto ureteral stent substrates 20 to 280 mm long (polyurethane double pigtail soflex ureteral stent, Cook Incorporated (Bloomington, Ind.)). A smooth, uniform coating was observed. Control stents were coated with the same concentration of Bupivacaine.HCl using the above coating method.
The stents were placed in solutions at different pH values to test the elution of bupivacaine over time. […] Acetic acid/sodium acetate was used for the pH 4.5 buffer, 0.1 M phosphate-buffered solution (PBS) for the pH 7.0 buffer, and sodium carbonate for the pH 9.5 buffer.

Series [3] can be described thus: Exposure of coated ureteral stent to water / aqueous environment (photomicrographs of coating). The class given is physicochemical.
Excerpt: as §1
(§2) FIGS. 4-7 depict photomicrographs of the coatings showing the uniformity and tenacity of the non-ionic coatings, in contrast to the water-soluble ionic coatings. […] FIG. 5 depicts a relatively rough, crystalline coating 91 of Bupivacaine.HCl on a ureteral stent 90, on the left, and the same stent after a one-minute ex vivo exposure to a pig ureter.
(§3) FIG. 7 then depicts the same type of stent 110 with a coating 114 of the non-ionic form of bupivacaine after 24 hours in an ex vivo test with a pig ureter.

Series [4] can be described thus: Ex vivo exposure of coated ureteral stent to a pig ureter.
Excerpt: as §1, §2, §3

The conditions of series [5]: Table 1, anesthetics having protonated and unprotonated forms; cited from earlier work.

Consider `CCCCN1CCCCC1C(=O)Nc1c(C)cccc1C` (centres unmarked) [Bupivacaine.HCl, 1-butyl-N-(2,6-dimethylphenyl)-2-piperidinecarboxamide hydrochloride], for which the “solubility in water (words)” value is “water-soluble” in series [1] (hydrochloride) and “soluble in water” in series [1] (listed as bupivacaine hydrochloride, hydrochloride). Besides, in series [2] (control stents coated with ionic form, aqueous solutions, same conditions, hydrochloride), the “time of release/elution from coated stent” value is reported as “within a matter of minutes; also recorded: eluted fully within minutes”. The “state of stent coating after dipping in water” value in series [3] (dipped in water for one minute (FIG. 4)) was “coating is substantially dissolved”. Besides, the “state of stent coating after ex vivo exposure to pig ureter” value in series [4] (one-minute ex vivo exposure (FIG. 5)) is on record as “Most of the coating 92 has been dissolved”.

One may read the pKa as the negative logarithm of the acid dissociation constant. Take `CCCCN1CCCCC1C(=O)Nc1c(C)cccc1C` (centres unmarked) [bupivacaine]: in series [1] (base or non-ionic form), the solubility result is “about 0.2 mg/mL”. Moreover, the “solubility in water (words)” value was “only very slightly soluble in water” in series [1] and “sparingly soluble in water” in series [1] (listed as Bupivacaine). Moreover, the pKa in series [5] is on record as 8.09. Moreover, the “period over which release from ureteral stent occurs” value in series [2] (coated polyurethane ureteral stent, solutions of pH 4.5, 7.0 and 9.5) is “about 12 days”. Further, the “dependence of release rate on pH of the eluting solution” value in series [2] (pH 4.5, 7.0, 9.5) was “approximately the same rate”. The “state of stent coating after exposure to aqueous environment” value in series [3] (aqueous environment for several days (FIG. 6)) was “virtually no effect on the coating”. In addition, the “state of stent coating after ex vivo test with pig ureter” value in series [4] (24 hours ex vivo (FIG. 7)) was “most of the non-ionic form of the bupivacaine coating remains on the stent”.

For the compound `CCCN1CCCC[C@H]1C(=O)Nc1c(C)cccc1C` [ropivacaine], the pKa in series [5] is 8.16.
